Data reported in US20120276124A1, “MAYTANSINOIDS AND THE USE OF SAID MAYTANSINOIDS TO PREPARE CONJUGATES WITH AN ANTIBODY” (priority 2009, published 2012).

Columns and labels:
HCT116 = test: Inhibition of growth of HCT116 tumor cells by free drugs (14C thymidine uptake); type: cell-based; settings: Homo sapiens, HCT-116; HCT116, 96 hrs; read-out: cellular inhibition proliferation (IC50 in nM) HCT116
Description: (§1) Inhibition of Growth of MDA-MB-231 and HCT116 Tumor Cells
(§2) Cells in exponential phase of growth were trypsinized and resuspended in their respective culture medium (DMEM/F12 Gibco #21331; 10% SVF Gibco #10500-056; […] Glutamine Gibco #25030 for MDA-MB231 & MDA-A1 cells; DMEM (Gibco #11960) 10%, SVF Gibco #10500-056; […] Glutamine Gibco #25030 for HCT116 cells). Cell suspension was distributed in 96-well Cytostar culture plates (GE Healthcare Europe, #RPNQ0163) in complete serum-containing media at a density of 5000 cells/well (MDA-MB231 HCT116). After coating for 4 hrs, serial dilutions were added to triplicate wells. Cells were cultured at 37° C./5% CO2 in the presence of the drug for 3 days. On the 4th day, 10 μl of a solution of 14C thymidine (0.1 μCi/well (Perkin Elmer #NEC56825000) was added to each well. The uptake of 14C thymidine was measured 96 hrs after the experiment has been started with a microbeta radioactive counter (Perkin Elmer). Cell-free reagent blanks were subtracted from the test well readings and the data were plotted as surviving fractions obtained by dividing readings of the conjugate-treated cells by the average of readings from control wells of vehicle-treated cells.

MDA-MB231 = test: Inhibition of growth of MDA-MB-231 tumor cells by free drugs (14C thymidine uptake); type: cell-based; settings: Homo sapiens, MDA-MB231, 96 hrs, read-out: cellular inhibition proliferation (IC50 in nM) MDA-MB231
Description: as §1, §2

Structure (SMILES) | IC50 (HCT116) [nM] | IC50 (MDA-MB231) [nM]
COC(=O)CCOCCOCCOCCOCCNC(=O)CSC(C)(C)CCC(=O)N(C)[C@@H](C)C(=O)O[C@H]1CC(=O)N(C)c2cc(cc(OC)c2Cl)C/C(C)=C/C=C/[C@@H](OC)[C@@]2(O)C[C@H](OC(=O)N2)[C@@H](C)[C@@H]2O[C@@]12C [Example 10, L-DM4-AcNH-PEG4-COOMe] | 13 | 15.3
COC(=O)CCOCCOCCOCCOCCN(C)C(=O)CSC(C)(C)CCC(=O)N(C)[C@@H](C)C(=O)O[C@H]1CC(=O)N(C)c2cc(cc(OC)c2Cl)C/C(C)=C/C=C/[C@@H](OC)[C@@]2(O)C[C@H](OC(=O)N2)[C@@H](C)[C@@H]2O[C@@]12C [Example 11, L-DM4-AcNMe-PEG4-COOMe] | 18.5 | 28.3
COC(=O)CCOCCOCCOCCOC/C=C/CSC(C)(C)CCC(=O)N(C)[C@@H](C)C(=O)O[C@H]1CC(=O)N(C)c2cc(cc(OC)c2Cl)C/C(C)=C/C=C/[C@@H](OC)[C@@]2(O)C[C@H](OC(=O)N2)[C@@H](C)[C@@H]2O[C@@]12C [Example 12, L-DM4-Allyl-PEG4-COOMe] | 0.8 | 1.5
COC(=O)CCOCCOCCOCCOCCNC(=O)CCN1C(=O)CC(SC(C)(C)CCC(=O)N(C)[C@@H](C)C(=O)O[C@H]2CC(=O)N(C)c3cc(cc(OC)c3Cl)C/C(C)=C/C=C/[C@@H](OC)[C@@]3(O)C[C@H](OC(=O)N3)[C@@H](C)[C@@H]3O[C@@]23C)C1=O (stereo partly drawn) [Example 14, L-DM4-Mal-PEG4-COOMe] | 33.6 | 31.7
